Data reported in article PMC9118553, “In Vivo Bioconcentration of 10 Anionic Surfactants in Rainbow Trout Explained by In Vitro Data on Partitioning and S9 Clearance” (Environmental Science & Technology, 2022).
Values joined by “and” are separate entries in the source; they are usually repeats but may differ in a detail not shown here. Identical values can stand only once. Marks after values point to notes of the source that are not given here.

Test system: rainbow trout
Experiment: In vivo bioconcentration experiment with a mixture of anionic surfactants, flow-through aquaria, 10 °C, pH 7.8;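 for Uptake rate constant kU: L kg-1 h-1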
Settings: for Log BCF: determined with measured concentrations in water; for Concentration in fish: individual fish; for BCF (steady-state): plateau 6-96 h, 95% confidence interval in brackets
Experimental: The bioconcentration of a mixture of 10 anionic surfactants was measured in rainbow trout in water at pH 7.8. […] The experiment was conducted in flow-through aquaria with juvenile rainbow trout at 10 °C. Ethical approval for the experiments was obtained from Stockholms […] (decision 9967-2017). The fish, fish housing, fish handling, and procedure for introducing the mixture of […] chemicals were very similar to our previous study with cationic surfactants;[5] details are provided in Text S1. The experiment consisted of a 4-day exposure phase and a 7-day depuration phase. […] Water samples were collected and fish were sacrificed according to the schedule in Table S4. The water samples were collected just prior to the daily removal of feces from the aquarium. Triplicate samples were taken at each time point. […] The water/methanol mixture was analyzed using liquid chromatography-mass spectrometry (LC-MS)/MS as described below for fish. At each fish sampling, five fish were sacrificed. Following stunning and severance of the spinal cord, the whole fish were placed in a polyethylene bag, weighed, and immediately frozen at -20 °C. The weight of the individual fish at sacrifice was 24.0 ± 5.6 g. Three of the five fish from each time point were prioritized for analysis based on proximity to the median fish weight. Each fish was […] homogenized with an Ultra-turrax dispersing device. […] This mixture was homogenized in a bullet blender for 5 min and then placed in an ultrasound bath at 45 °C for 15 min. Following centrifugation for 15 min@3200 RCF, the supernatant was decanted and the extraction was repeated. The extracts were combined. For instrumental analysis, 5 μL of the fish extract or 60 μL of the water/methanol mixture (water samples) was separated on an Acquity UPLC BEH C18 column fitted with a BEH C18 pre-column and analyzed on a TSQ Quantiva triple quadrupole mass spectrometer. The mobile phase was methanol (10 mM ammonium acetate) and Milli-Q-filtered water (10 mM ammonium acetate) (see Table S5 for the liquid chromatography program). To avoid detergent blank peaks originating from cleaning mobile phase bottles, the methanol was prepared directly in the solvent bottle as delivered and Milli-Q was tapped into an empty methanol bottle. Furthermore, a guard column was fitted between the mobile phase and the autosampler to prevent background contamination from disturbing the analysis. All analytes were quantified against the BEHP internal standard, as it gave better reproducibility. […] The central goal of the analysis was to estimate kU and kT as well as the BCF (=kU/kT) from measurements of surfactant concentration in fish and water samples collected at different time points of the experiment. For the fish, only those time points were included for which CF(measured) was above the limit of quantitation (LOQ) in all three fish (data below the LOQ will have a positive bias; including them would result in a negative bias in kT). In this analysis, there exist two sources of uncertainty: first, uncertainty in the actual concentration in water CW at the time of sample collection and second, variability in the concentration in fish around the (expected) surfactant concentrations in fish assumed to follow model (1). We therefore set up a model in which we considered uncertainty in both water and fish measurements simultaneously by assuming a parametric model for the surfactant concentration in the water over time (either linear or quadratic) and accounted for the uncertainty in the corresponding parameters of the water model during the estimation of kU and kT. This was done in a joint Bayesian model that we estimated via Hamiltonian Monte Carlo. […]

[1] = determined using nominal concentrations in water
[2] = from measured concentrations in water, Bayesian estimate, 95% credible interval in brackets
[3] = measured concentrations in water, simpler estimation method (Text S3), 95% confidence intervals in brackets
[4] = measured concentrations in water

SMILES | BCF [1] | Log BCF | Concentration in fish (elimination phase, 97 h) | Concentration in fish (elimination phase, 98 h) | Concentration in fish (elimination phase, 100 h) | Concentration in fish (elimination phase, 103 h) | Concentration in fish (elimination phase, 120 h) | Concentration in fish (elimination phase, 128 h) | Concentration in fish (elimination phase, 144 h) | Concentration in fish (elimination phase, 168 h) | Concentration in fish (elimination phase, 192 h) | Concentration in fish (elimination phase, 264 h) | Concentration in fish (exposure phase, 1 h) | Concentration in fish (exposure phase, 2 h) | Concentration in fish (exposure phase, 3 h) | Concentration in fish (exposure phase, 4 h) | Concentration in fish (exposure phase, 6 h) | Concentration in fish (exposure phase, 24 h) | Concentration in fish (exposure phase, 48 h) | Concentration in fish (exposure phase, 72 h) | other results
CCCCCCCCCCc1ccc(S(=O)(=O)O)cc1 [C10-1-LAS, 1-n-(p-sulfophenyl)decane] | 15.0 L kg-1 ww | 1.21 L kg-1 ww | 78 ng g-1 ww (2×) and 103 ng g-1 ww | 73 ng g-1 ww and 72 ng g-1 ww and 55 ng g-1 ww | 74 ng g-1 ww and 57 ng g-1 ww and 60 ng g-1 ww | 47 ng g-1 ww and 58 ng g-1 ww and 51 ng g-1 ww | 24 ng g-1 ww and 27 ng g-1 ww and 17.2 ng g-1 ww | 14.0 ng g-1 ww and 17.0 ng g-1 ww and 18.2 ng g-1 ww | 7.6 ng g-1 ww and 6.8 ng g-1 ww and 10.2 ng g-1 ww | 4.7 ng g-1 ww and 3.5 ng g-1 ww (2×) | 1.08 ng g-1 ww and 1.14 ng g-1 ww and 1.40 ng g-1 ww | 1.0 ng g-1 ww and 0.7 ng g-1 ww and 0.31 ng g-1 ww | 8.9 ng g-1 ww and 6.9 ng g-1 ww and 16.6 ng g-1 ww | 11.3 ng g-1 ww and 10.6 ng g-1 ww and 7.2 ng g-1 ww | 16.5 ng g-1 ww and 19.7 ng g-1 ww and 16.6 ng g-1 ww | 26 ng g-1 ww and 32 ng g-1 ww and 75 ng g-1 ww | 38 ng g-1 ww (2×) and 27 ng g-1 ww | 86 ng g-1 ww and 91 ng g-1 ww and 64 ng g-1 ww | 94 ng g-1 ww and 98 ng g-1 ww and 84 ng g-1 ww | 112 ng g-1 ww and 87 ng g-1 ww and 70 ng g-1 ww | Elimination rate constant kT [1]: 0.049 h⁻¹; Uptake rate constant kU [1]: 0.74 L/kg/h; Concentration in fish (exposure phase, 96 h): 113 ng g-1 ww and 104 ng g-1 ww and 110 ng g-1 ww; Elimination rate constant kT [2]: 0.047 (0.044–0.050) h^–1; Uptake rate constant kU [2]: 0.77 (0.67–0.87) L kg^–1 ww h^–1; diffusion coefficient (D) in the epithelial membrane of the gills (in vivo): 2.4 × 10^–8 m h^–1; BCF (kinetic) (kinetic BCF from measured concentrations in water, 95% credible interval in brackets): 16.3 (14.6–18.2) L kg^–1 ww; BCF [3]: 14.7 (8) L kg-1 ww; Elimination rate constant kT [3]: 0.046 (3) h-1; Uptake rate constant kU [3]: 0.67 (8) L kg-1 ww h-1; BCF (own values): 16.3 L kg^–1
CCCCCCCCCCS(=O)(=O)O [C10SO3, decylsulfonate] | 0.046 L kg-1 ww | -1.38 L kg-1 ww | 3.0 ng g-1 ww and 1.5 ng g-1 ww and 1.3 ng g-1 ww | 1.5 ng g-1 ww and 1.0 ng g-1 ww and 1.4 ng g-1 ww | 5.1 ng g-1 ww and 1.4 ng g-1 ww (2×) | 0.3 ng g-1 ww (2×) and 0.6 ng g-1 ww | 0.50 ng g-1 ww and 0.76 ng g-1 ww and 0.61 ng g-1 ww | 0.62 ng g-1 ww and 0.49 ng g-1 ww and 0.99 ng g-1 ww | 0.63 ng g-1 ww and 0.33 ng g-1 ww and 5.2 ng g-1 ww | 0.49 ng g-1 ww and 0.55 ng g-1 ww and 0.16 ng g-1 ww | 0.14 ng g-1 ww and 0.15 ng g-1 ww and 0.22 ng g-1 ww | 2.0 ng g-1 ww and 1.9 ng g-1 ww and 0.2 ng g-1 ww | 1.1 ng g-1 ww and 2.1 ng g-1 ww and 1.4 ng g-1 ww | 1.1 ng g-1 ww (2×) and 7.5 ng g-1 ww | 1.5 ng g-1 ww and 1.6 ng g-1 ww and 5.5 ng g-1 ww | 2.4 ng g-1 ww and 3.5 ng g-1 ww and 6.5 ng g-1 ww | 2.1 ng g-1 ww and 2.0 ng g-1 ww and 1.4 ng g-1 ww | 42.8 ng g-1 ww and 1.4 ng g-1 ww (2×) | 2.4 ng g-1 ww and 3.6 ng g-1 ww and 1.7 ng g-1 ww | 3.6 ng g-1 ww and 2.1 ng g-1 ww and 3.0 ng g-1 ww | Concentration in fish (exposure phase, 96 h): 3.0 ng g-1 ww (2×) and 2.8 ng g-1 ww; BCF (steady-state) [4]: 0.042 ^d (0.034–0.050) L kg^–1 ww
CCCCCCCCCCCS(=O)(=O)O [C11SO3, undecylsulfonate] | 0.137 L kg-1 ww | -0.87 L kg-1 ww | 5.5 ng g-1 ww and 3.8 ng g-1 ww and 3.2 ng g-1 ww | 3.2 ng g-1 ww and 2.8 ng g-1 ww and 30.6 ng g-1 ww | 14.1 ng g-1 ww and 2.8 ng g-1 ww and 3.1 ng g-1 ww | 2.2 ng g-1 ww and 3.0 ng g-1 ww and 6.7 ng g-1 ww | 0.58 ng g-1 ww and 0.87 ng g-1 ww and 0.78 ng g-1 ww | 0.53 ng g-1 ww and 0.50 ng g-1 ww and 0.58 ng g-1 ww | 0.49 ng g-1 ww and 0.42 ng g-1 ww and 0.53 ng g-1 ww | 0.56 ng g-1 ww and 0.41 ng g-1 ww and 0.22 ng g-1 ww | 0.10 ng g-1 ww and 0.19 ng g-1 ww (2×) | 1.49 ng g-1 ww and 0.23 ng g-1 ww and 0.19 ng g-1 ww | 3.2 ng g-1 ww and 1.5 ng g-1 ww and 8.4 ng g-1 ww | 2.1 ng g-1 ww and 1.9 ng g-1 ww and 1.4 ng g-1 ww | 2.9 ng g-1 ww and 3.6 ng g-1 ww and 3.2 ng g-1 ww | 3.5 ng g-1 ww and 13.4 ng g-1 ww and 41 ng g-1 ww | 4.7 ng g-1 ww and 5.0 ng g-1 ww and 3.8 ng g-1 ww | 5.5 ng g-1 ww and 4.2 ng g-1 ww and 3.8 ng g-1 ww | 4.4 ng g-1 ww and 5.1 ng g-1 ww and 3.7 ng g-1 ww | 7.2 ng g-1 ww and 5.2 ng g-1 ww and 4.9 ng g-1 ww | Concentration in fish (exposure phase, 96 h): 8.1 ng g-1 ww and 7.8 ng g-1 ww and 5.3 ng g-1 ww; BCF (steady-state) [4]: 0.136 ^d (0.114–0.158) L kg^–1 ww
